Drawing on ChEMBL document CHEMBL5726715 (2018), this text covers IC50 for 52 molecules.

Molecules are shown by their SMILES.

In the assay the target is T1, 3-phosphoinositide-dependent protein kinase 1 (Homo sapiens, UniProt O15530).
T1 sequence (O15530 whole entry): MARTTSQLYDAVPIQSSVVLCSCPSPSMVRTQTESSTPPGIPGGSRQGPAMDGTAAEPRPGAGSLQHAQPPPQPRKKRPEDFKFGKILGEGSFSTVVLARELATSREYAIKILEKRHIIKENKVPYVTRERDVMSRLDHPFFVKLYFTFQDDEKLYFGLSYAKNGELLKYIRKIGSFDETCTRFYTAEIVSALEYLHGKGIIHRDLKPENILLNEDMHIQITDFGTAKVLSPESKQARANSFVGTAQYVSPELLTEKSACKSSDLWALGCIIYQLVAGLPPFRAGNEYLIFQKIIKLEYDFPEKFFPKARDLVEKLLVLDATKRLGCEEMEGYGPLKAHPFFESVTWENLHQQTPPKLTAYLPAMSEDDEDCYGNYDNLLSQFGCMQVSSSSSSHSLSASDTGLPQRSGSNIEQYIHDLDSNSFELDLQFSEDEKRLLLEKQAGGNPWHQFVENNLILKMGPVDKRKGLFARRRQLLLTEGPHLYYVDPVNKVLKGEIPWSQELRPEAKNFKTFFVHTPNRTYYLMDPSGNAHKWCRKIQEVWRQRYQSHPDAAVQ
The experiment in a line: Kinase Assay: A PDK1 kinase assay was performed as follows. […] PDK1 protein was divided into two fractions, one of which was subsequently dephosphorylated. To generate dephosphorylated PDK1, the PDK1 was reacted with GST-tagged lambda-phosphatase in vitro. GST was subsequently cleaved proteolytically for both phosphorylated and dephosphorylated PDK1. Protein preparations were run on glutathione Sepharose columns to remove GST and GST-tagged lambda-phosphatase, if present. […] Enzyme activity was determined in a coupled PDK1/AKT/FAM-crosstide assay using either phosphorylated or unphosphorylated PDK1 and phosphorylation of FAM-crosstide was determined by standard IMAP protocol (Molecular Devices). For inhibition studies, compounds were titrated 3-fold in DMSO and diluted 40-fold into assay buffer (10 mM Tris HCl pH7.2; 10 mM MgCl2; 0.01% Triton X-100; 1 mM DTT) containing PDK1, AKT2, and FAM-crosstide. […] To detect assay product, the kinase reaction was combined with Progressive Binding Solution (1:600 Progressive Binding Reagent, 50% Buffer A, 50% Buffer B, Molecular Devices) in a 1:3 ratio.
Regarding `CC(=O)NC[C@@H](NC(=O)c1cccn(Cc2ccc(F)c(F)c2)c1=O)c1nc(-c2c[nH]c3ncccc23)cs1`, the IC50 was less than 0.5 µM.
Next, `O=C(NCc1cccc(-c2c[nH]c3nccc(F)c23)c1)c1cccn(Cc2ccc(F)c(F)c2)c1=O`: less than 0.5 µM; `O=C(NC/C=C/c1ccc2[nH]c(=O)[nH]c2c1)c1cccn(Cc2cc(F)c(F)c(F)c2)c1=O`: less than 0.5 µM.
Next, `O=C(NCc1cc(OC2CCCCC2)cc(-c2c[nH]c3ncccc23)c1)c1cccn(Cc2ccc(F)c(F)c2)c1=O`: less than 0.5 µM.
Next, `Nc1ncnc2ccc(-c3ccc(CNC(=O)c4cccn(Cc5ccc(F)c(F)c5)c4=O)s3)cc12`: less than 0.5 µM.
As for `O=C(NCc1cccc(-c2c[nH]c3ncc(C(F)(F)F)cc23)c1)c1cccn(Cc2ccc(F)c(F)c2)c1=O`, the IC50 was less than 0.5 µM.
Next, `O=C(NCc1cc(OC2CCCC2)cc(-c2c[nH]c3ncccc23)c1)c1cccn(Cc2ccc(F)c(F)c2)c1=O`: less than 0.5 µM.
Next, `O=C(NCc1ccc(O)c(-c2c[nH]c3ncccc23)c1)c1cccn(Cc2ccc(F)c(F)c2)c1=O`: less than 0.5 µM; `O=C(N[C@@H](COc1ccc2[nH]c(=O)[nH]c2c1)c1ccccc1Cl)c1cccn(Cc2cc(F)c(F)c(F)c2)c1=O`: less than 0.5 µM; `O=C(NCc1coc(-c2c[nH]c3ncccc23)n1)c1cccn(Cc2ccc(F)c(F)c2)c1=O`: less than 0.5 µM.
Next, `O=C(NCc1noc(-c2c[nH]c3ncccc23)n1)c1cc(Cl)cn(Cc2ccc(C(F)(F)F)cc2)c1=O`: less than 0.5 µM.
As for `CC(C)Oc1cc(CNC(=O)c2cccn(Cc3cc(F)c(F)c(F)c3)c2=O)cc(-c2c[nH]c3ncccc23)c1`, the IC50 is less than 0.5 µM.
Next, `O=C(NCc1ccc(OCCN2CCOCC2)c(-c2c[nH]c3ncccc23)c1)c1cccn(Cc2ccc(F)c(F)c2)c1=O`: less than 0.5 µM; `O=C(Nc1ccnc2ccc(-c3c[nH]c4ncccc34)cc12)c1cccn(Cc2ccc(F)c(F)c2)c1=O`: less than 0.5 µM.
Next, `O=C(NC1CC1)c1cnc2[nH]cc(-c3cccc(CNC(=O)c4cccn(Cc5ccc(F)c(F)c5)c4=O)c3)c2c1`: less than 0.5 µM; `O=C(NCc1cccc(-c2c[nH]c3ncc(C(=O)N4CCOCC4)cc23)c1)c1cccn(Cc2ccc(F)c(F)c2)c1=O`: less than 0.5 µM; `CN1CCC(Oc2cc(CNC(=O)c3cccn(Cc4ccc(F)c(F)c4)c3=O)cc(-c3c[nH]c4ncccc34)c2)CC1`: less than 0.5 µM.
Next, `COc1cnc2[nH]cc(-c3ccc(CNC(=O)c4cccn(Cc5ccc(F)c(F)c5)c4=O)s3)c2c1`: less than 0.5 µM; `Cc1[nH]c2ncccc2c1-c1cccc(CNC(=O)c2cccn(Cc3ccc(F)c(F)c3)c2=O)c1`: less than 0.5 µM; `NC(=O)c1cc(-c2c[nH]c3ncccc23)cc(CNC(=O)c2cccn(Cc3ccc(F)c(F)c3)c2=O)n1`: less than 0.5 µM.
As for `C=C[C@H](COc1ccc2[nH]c(=O)[nH]c2c1)NC(=O)c1cccn(Cc2cc(F)c(F)c(F)c2)c1=O`, the IC50 is less than 0.5 µM.
Next, `O=C(NCc1cccc(-c2c[nH]c3ncc(C(=O)N4CCNCC4)cc23)c1)c1cccn(Cc2ccc(F)c(F)c2)c1=O`: less than 0.5 µM; `NC(=O)[C@H](COc1ccc2[nH]c(=O)[nH]c2c1)NC(=O)c1cccn(Cc2cc(F)c(F)c(F)c2)c1=O`: less than 0.5 µM; `O=C(NCc1noc(-c2c[nH]c3ncccc23)n1)c1cccn(Cc2cc(F)c(F)c(F)c2)c1=O`: less than 0.5 µM.
Next, `NC(=O)COc1cc(CNC(=O)c2cccn(Cc3ccc(F)c(F)c3)c2=O)cc(-c2c[nH]c3ncccc23)c1`: less than 0.5 µM; `O=C(NCc1cc(OC2CCNCC2)cc(-c2c[nH]c3ncccc23)c1)c1cccn(Cc2ccc(F)c(F)c2)c1=O`: less than 0.5 µM.
`NC(=O)c1cc(-c2cccc(CNC(=O)c3cccn(Cc4ccc(F)c(F)c4)c3=O)c2)c[nH]1`: the 50% inhibitory concentration (IC50) was less than 0.5 µM.
The value for `O=C(NCc1cncc(-c2c[nH]c3ncccc23)c1)c1cccn(Cc2ccc(F)c(F)c2)c1=O` was less than 0.5 µM; that for `CCn1nc(NC(=O)c2cccn(Cc3ccc(F)c(F)c3)c2=O)c2cc(-c3c[nH]c4ncccc34)ccc21` was less than 0.5 µM; that for `CC(C)(C)OC(=O)N1CCC(Oc2cc(CNC(=O)c3cccn(Cc4ccc(F)c(F)c4)c3=O)cc(-c3c[nH]c4ncccc34)c2)CC1` was less than 0.5 µM.
The value for `COc1ccc(-c2c[nH]c3ncccc23)cc1CNC(=O)c1cccn(Cc2ccc(F)c(F)c2)c1=O` was less than 0.5 µM; that for `CNC(=O)c1cc(-c2cccc(CNC(=O)c3cccn(Cc4ccc(F)c(F)c4)c3=O)c2)c[nH]1` was less than 0.5 µM; that for `CC(c1ccc(C(F)(F)F)cc1)n1cccc(C(=O)NCc2noc(-c3c[nH]c4ncccc34)n2)c1=O` (configuration not stated) was less than 0.5 µM.
The value for `COc1cnc2[nH]cc(-c3cccc(CNC(=O)c4cccn(Cc5ccc(F)c(F)c5)c4=O)c3)c2c1` was less than 0.5 µM.
With `O=C(NCc1noc(-c2c[nH]c3ncccc23)n1)c1cccn(Cc2ccc(F)c(F)c2)c1=O`, the IC50 is less than 0.5 µM.
As to `O=C(NCc1cccc(-c2c[nH]c3ncccc23)c1)c1cccn(Cc2ccc(C(F)(F)F)cc2)c1=O`, the IC50 was less than 0.5 µM.
As for `O=C(O)c1cc(-c2c[nH]c3ncccc23)cc(CNC(=O)c2cccn(Cc3ccc(F)c(F)c3)c2=O)n1`, the IC50 is less than 0.5 µM.
Next, `O=C(O)Cn1nc(NC(=O)c2cccn(Cc3ccc(F)c(F)c3)c2=O)c2cc(-c3c[nH]c4ncccc34)ccc21`: less than 0.5 µM; `O=C(N[C@@H](COc1ccc2[nH]c(=O)[nH]c2c1)C1CC1)c1cccn(Cc2cc(F)c(F)c(F)c2)c1=O`: less than 0.5 µM.
The value for `Nc1ncnc2ccc(-c3cccc(CNC(=O)c4cccn(Cc5ccc(F)c(F)c5)c4=O)c3)cc12` was less than 0.5 µM; that for `O=C(NCc1cc(OCC(O)CO)cc(-c2c[nH]c3ncccc23)c1)c1cccn(Cc2ccc(F)c(F)c2)c1=O` (configuration not stated) was less than 0.5 µM.
The value for `Cn1nc(NC(=O)c2cccn(Cc3ccc(F)c(F)c3)c2=O)c2cc(-c3c[nH]c4ncccc34)ccc21` was less than 0.5 µM.
In the case of `O=C(NCc1cc(OS(=O)(=O)c2ccccc2)cc(-c2c[nH]c3ncccc23)c1)c1cccn(Cc2ccc(F)c(F)c2)c1=O`, the IC50 was less than 0.5 µM.
The value for `O=C(NCCOc1ccc2[nH]c(=O)[nH]c2c1F)c1cccn(Cc2ccc(F)c(F)c2)c1=O` was less than 0.5 µM.
`C[C@H](COc1ccc2[nH]c(=O)[nH]c2c1)NC(=O)c1cccn(Cc2cc(F)c(F)c(F)c2)c1=O`: the IC50 was less than 0.5 µM.
Next, `O=C(NCc1cc(-c2c[nH]c3ncccc23)cc[n+]1[O-])c1cccn(Cc2ccc(F)c(F)c2)c1=O`: less than 0.5 µM; `CN(C)C(=O)COc1cc(CNC(=O)c2cccn(Cc3ccc(F)c(F)c3)c2=O)cc(-c2c[nH]c3ncccc23)c1`: less than 0.5 µM.
Turning to `O=C(NCc1cccc(-c2c[nH]c3ncc(O)cc23)c1)c1cccn(Cc2ccc(F)c(F)c2)c1=O`, the IC50 is less than 0.5 µM.
The value for `O=C(NCc1cc(-c2c[nH]c3ncccc23)ccc1O)c1cccn(Cc2ccc(F)c(F)c2)c1=O` was less than 0.5 µM; that for `CS(=O)(=O)N1CCC(Oc2cc(CNC(=O)c3cccn(Cc4ccc(F)c(F)c4)c3=O)cc(-c3c[nH]c4ncccc34)c2)CC1` was less than 0.5 µM; that for `O=C(NCc1cccc(-c2c[nH]c(C(=O)N3CCOCC3)c2)c1)c1cccn(Cc2ccc(F)c(F)c2)c1=O` was less than 0.5 µM.
Next, `COc1ccc(CNC(=O)c2cccn(Cc3ccc(F)c(F)c3)c2=O)cc1-c1c[nH]c2ncccc12`: less than 0.5 µM.
